Reference: US8969410B1, “Pharmaceutical composition for alleviating or treating gout and uses thereof” (Industrial Technology Research Institute, priority 2013, dated 2015)

Columns and labels:
Type in all cases: in vivo
[1] = test system: leukocyte cell (CD45+ cells); assay: Mouse air pouch model of MSU-induced gout: leukocyte cell density in exudate by flow cytometry; conditions: for AVERAGE VALUES (normalized leukocyte cell density): Example 4, Table 2, topical paste 100 mg/mouse (5 mg actives total) 15 h prior to MSU, exudate 5 h after MSU; for INHIBITION RATE (leukocytes): Example 4, Table 2, vs blank control, topical paste 100 mg/mouse (5 mg actives total) 15 h prior to MSU
Source text: (§1) Mouse Air pouch model: this mouse model may be referenced to the methods and the experimental details as in the published article “Role of S100A8 and S100A9 in neutrophil recruitment in response to monosodium urate monohydrate crystals in the air-pouch model of acute gouty arthritis”, Arthritis Rheum 2003 August, 48(8):2310-20. The full content of such document as a whole is incorporated by reference herein and made a part of this specification.
(§2) Before the experiment, the mice are shaved to remove back hair. At day 0 sterile filtered air (2 ml/per mouse) is injected through 0.22 μm microfilter to the back of each mouse subcutaneously, so that a pseudosynovial cavity is formed in each mouse. At day 3, an air booster (3 ml/mouse) is again given to each mouse, so that the air pouch is maintained round. Later, the mice are weighed and grouped so that the average weight of the mice in each group is about the same. At day 6 monosodium urate (MSU) crystal suspension (5 mg in 2 ml/per mouse) is injected into the air pouch. Topical application of the paste (100 mg paste/per mouse) is administrated 15 hours prior to MSU stimulation. At a specific time (5 hours) after the injection of MSU, the mice were euthanized with an excess of carbon dioxide, 2 ml PBS per mouse is injected into the air pouch, and the air pouch is carefully cut to collect the exudate. The collected exudate is subjected to the centrifugation at 1,000 rpm, 4° C. for 5 minutes, and the supernatant is then placed in a 96-well plate and stored at −20° C. An ELISA kit (purchased from R&D Systems) is used to analyze the contents of IL-1β and IL-6 in the exudate. The precipitate is resuspended and reacted with 1 ml red blood cell lysis buffer (RBC lysis buffer) for one minute to remove the red blood cells, followed by adding 1 ml PBS to terminate the reaction, centrifuged at 1,000 rpm, 25° C. for 5 minutes, and the supernatant is discarded. The precipitate is then resuspended in 1 ml PBS as the cell suspension and the cell suspension is filtered by filter membrane (BD Falcon 100 μm Nylon filter strainer) and the filtered cell suspension is dispensed into several tubes (0.25 ml/tube) for subsequent cell counting or for labelling with various differentiation antigen markers (such as cluster of differentiation (CD) markers). The flow cytometry is used for cell counting of the various cells.
(§3) In order to investigate the anti-gout efficacy of AG02-RA1 and AG04-RA1, either used alone or in combination, the experiments are performed to test AG02-RA1 alone, AG04-RA1 alone and the combination (s) of AG02-RA1:AG04-RA1 in the ratio of 50:50 (Composition Nos. 1, 2 and 3 as shown in Table 1). […]

[2] = test system: neutrophil cell (CD45+/Ly6G+ cells); assay: Mouse air pouch model of MSU-induced gout: neutrophil cell density in exudate by flow cytometry; conditions: for AVERAGE VALUES (neutrophil cell density): Example 4, Table 3, topical paste 100 mg/mouse (5 mg actives total) 15 h prior to MSU, exudate 5 h after MSU; for INHIBITION RATE (neutrophils): Example 4, Table 3, vs blank control, topical paste 100 mg/mouse (5 mg actives total)
Source text: as §1, §2, §3

interleukin-1β (mIL-1β) = assay: Mouse air pouch model of MSU-induced gout: IL-1β in exudate by ELISA; conditions: Example 4, FIG. 3; topical paste 100 mg/mouse (5 mg actives total) 15 h prior to MSU; exudate 5 h after MSU
Source text: as §1
(§4) Before the experiment, the mice are shaved to remove back hair. At day 0 sterile filtered air (2 ml/per mouse) is injected through 0.22 μm microfilter to the back of each mouse subcutaneously, so that a pseudosynovial cavity is formed in each mouse. At day 3, an air booster (3 ml/mouse) is again given to each mouse, so that the air pouch is maintained round. Later, the mice are weighed and grouped so that the average weight of the mice in each group is about the same. At day 6 monosodium urate (MSU) crystal suspension (5 mg in 2 ml/per mouse) is injected into the air pouch. Topical application of the paste (100 mg paste/per mouse) is administrated 15 hours prior to MSU stimulation. At a specific time (5 hours) after the injection of MSU, the mice were euthanized with an excess of carbon dioxide, 2 ml PBS per mouse is injected into the air pouch, and the air pouch is carefully cut to collect the exudate. […]

interleukin-6 (mIL-6) = assay: Mouse air pouch model of MSU-induced gout: IL-6 in exudate by ELISA; conditions: Example 4, FIG. 4; topical paste 100 mg/mouse (5 mg actives total) 15 h prior to MSU; exudate 5 h after MSU
Source text: as §1, §4

Row | Structure (SMILES) | AVERAGE VALUES (normalized leukocyte cell density) [1] [cells*10^3/ml] | INHIBITION RATE (leukocytes) [1] [%] | AVERAGE VALUES (neutrophil cell density) [2] [cells*10^3/ml] | INHIBITION RATE (neutrophils) [2] [%] | inhibition rate of interleukin-1β secretion amount (interleukin-1β (mIL-1β)) [%] | inhibition rate of interleukin-6 secretion amount (interleukin-6 (mIL-6)) [%]
1 | C=C1C(=O)OC2/C=C(\C)CC3C=C(CC/C=C(\C)CCC12)C(=O)O3 (stereo not shown) [AG02-RA1, 3,7,11,15(17)-cembratetraene-16,2:19,6-diolide-3484-37-5(3E,12E)-3,12-dimethyl-8-methylene-6,18-dioxa-tricyclo[14.2.1.0.5,9]nonadeca-3,12,16(19)-triene-7,17-dione] | 1609 | −100 | 133 | 63 |  | 
2 | CC(=O)OCC=Cc1ccc(OC(C)=O)cc1 [AG04-RA1, 4-(3-acetoxy-propenyl)-phenyl acetate] | 670 | 17 | 205 | 43 | > 50 | > 50
